Laboratory results as given in patent US9073880B2, “2-(2-phenylethenyl) 1,3-benzodiazepine derivatives useful for the treatment of cancer” (Yissum Research Development Company of the Hebrew …, priority 2010, dated 2015).

Key:
[1] = test system: human prostate carcinoma PC3 cells; experiment: Cell proliferation, PC3 (Example 2); format: cell-based; conditions: PC-3, 72 hours, 0.1% DMSO, methylene blue
Protocol: (§1) Human ovary cancer A2780 cells lines were seeded at a density of 5000 cells/well, human melanoma A375 cells were plated at a density of 2,500 cells/well, human colon carcinoma HCT15 cells were plated at a density of 3,000 cells/well, human prostate carcinoma PC3 cells were plated at a density of 1,500 cells/well, human breast carcinoma MCF7 cells were plated at a density of 5,000 cells/well, human breast carcinoma MDA MB 468 cells were plated at a density of 6,000 cells/well, human myeloma U266, RPMI8226 and CAG cells were plated at a density of 10,000 cells/well. All cells were plated in 96-well plates in 90 μl growth medium containing 10% FCS, 100 units/ml penicillin and 100 μg/ml streptomycin. Compound 3 was added a day later in […] of 1% DMSO in DDW to obtain final concentrations of 0, 0.1, 0.3, 1, 3, and 10 μM. The final concentration of DMSO (0.1% DMSO) was kept constant in all samples. […] The optical density values were read at 630 nm in ELISA plate reader. Non-adhered cells were exposed to WST-1 reagent for 5 hours following 72 hours treatment with the inhibitors, and optical density values were read at 630 nm in ELISA plate reader. The data was analyzed in Microsoft Excel, using the vehicle control as 100% proliferation. […]

[2] = test system: human multiple myeloma U266 cells; experiment: Cell proliferation, U266 (Example 4); format: cell-based; conditions: U-266, compound in 2-hydroxypropyl-β-cyclodextrin
Protocol: as §1

Akt/PKB pathway = experiment: IGF1-induced Akt/PKB activation in A375 cells (Example 5); format: cell-based, human
Protocol: The effect of compound 5 on IRS1 & IRS2 levels and its effect on IGF1-induced Akt/PKB activation and apoptosis in melanoma A375 cells were tested. Cells were seeded in 6-well plates (150,000 A375 cells/well) and 24 hours later medium was replaced by serum-free medium (RPMI supplemented with 100 units/ml penicillin and 100 μg/ml streptomycin), […], and then stimulated for 5 minutes with 50 ng/ml IGF-1, washed twice with PBS and lysed by boiling sample buffer (10% glycerol, 50 mM Tris-HCl, pH 6.8, 3% SDS, and 5% β-mercaptoethanol). Equal amounts of protein per lane were separated by 8% SDS-PAGE and transferred to a nitrocellulose membrane (Sartorius AG). To detect the inhibition of the Akt/PKB activation, phosphorylated proteins were immunoblotted with anti-phospho(T308)Akt (pT308-PKB) and anti-phospho-Tuberin/TSC2 (pTuberin) antibodies. To visualize cell death induced by compound 5, the intact and the cleaved PARP were immunoblotted with anti-PARP antibody. The changes in the levels of IRS1 and IRS2 were detected with specific antibodies. Detection was performed with horseradish peroxidase-conjugated secondary antibody using the ECL system. Blots were then stripped of antibodies, blocked with TBST with 5% low fat milk and re-probed with antibodies detecting both the phosphorylated and the non-phosphorylated Akt/PKB. […]

Row | SMILES | IC50 [1] | IC50 [2] | IGF1-induced activation of the Akt/PKB pathway (Akt/PKB pathway; 3 μM, 48 hr, 50 ng/ml IGF-1 5 minutes, FIG. 6B) | IGF1-induced activation of PKB/Akt after washout (Akt/PKB pathway; 5 μM for 4 hr, washed, 24 hr after washout, FIG. 6C)
1 | O=c1c(O)cc2cnc(/C=C/c3cc(O)c(O)c(Br)c3)sc-2c1O [Compound 3] | 2000 nM | 700 nM | – | –
2 | O=c1c(O)cc2cnc(/C=C/c3ccc(O)c(O)c3Br)sc-2c1O [Compound 5] | – | – | blocked the IGF1-induced activation of the Akt/PKB pathway | blocked
